Reference: ChEMBL document CHEMBL1201862, “PubChem BioAssay data set” (2004)
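Growth conditions: 96-well plates. Treatment: test compound, 48 hours, 5 concentrations. Analysis: linear interpolation between bracketing concentrations; unreached endpoints set to highest concentration. GI50: concentration for 50% inhibition of growth.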 Activity calls are given as the source filed them. Cut-off read from the data, not from the text of the source: active = GI50 up to about 1.1 µM and inactive = higher.

How the values were obtained:
Assay in all cases: inhibition of tumour cell growth, NCI panel, 48 h
MOLT-4 = tested on: MOLT-4
K562 = tested on: K562
COLO 205 = tested on: COLO 205
SR = tested on: SR
HCT-116 = tested on: HCT-116
SK-OV-3 = tested on: SK-OV-3
IGROV-1 = tested on: IGROV-1
MCF7 = tested on: MCF7
TK-10 = tested on: TK-10
KM12 = tested on: KM12
RPMI-8226 = tested on: RPMI-8226
NCI-H226 = tested on: NCI-H226
ACHN = tested on: ACHN
HOP-62 = tested on: HOP-62
SNB-19 = tested on: SNB-19
EKVX = tested on: EKVX
NCI-H522 = tested on: NCI-H522
OVCAR-8 = tested on: OVCAR-8
U-251 = tested on: U-251
CCRF-CEM = tested on: CCRF-CEM

Measured: GI50

N#Cc1c(N)nc(Nc2cccc3ccccc23)c(C#N)c1C#N
inactive: MOLT-4 3.03 µM | K562 2.58 µM | COLO 205 > 10 µM | SR 3 µM | HCT-116 2.54 µM | SK-OV-3 3.94 µM | IGROV-1 > 10 µM | MCF7 2.79 µM | TK-10 > 10 µM | KM12 7.53 µM | RPMI-8226 2.61 µM | NCI-H226 > 10 µM | ACHN 4.78 µM | HOP-62 4.89 µM | SNB-19 > 10 µM | EKVX > 10 µM | NCI-H522 2.9 µM | OVCAR-8 5.25 µM | U-251 4.71 µM | CCRF-CEM 2.32 µM

NC(=O)SCC(=O)Nc1ccc2ncccc2c1
inactive: K562 36.1 µM | COLO 205 > 100 µM | SR 49 µM | HCT-116 > 100 µM | SK-OV-3 > 100 µM | IGROV-1 > 100 µM | MCF7 46.8 µM | TK-10 54.7 µM | KM12 45.4 µM | RPMI-8226 23.6 µM | NCI-H226 > 100 µM | ACHN > 100 µM | HOP-62 > 100 µM | SNB-19 40.6 µM | EKVX > 100 µM | NCI-H522 27.7 µM | OVCAR-8 > 100 µM | U-251 21.5 µM | CCRF-CEM 29.6 µM

CC(=O)C1=C(C)NC(=C(C#N)C#N)C(C#N)=C1
inactive: MOLT-4 > 100 µM | K562 > 100 µM | COLO 205 > 100 µM | SR > 100 µM | HCT-116 > 100 µM | IGROV-1 > 100 µM | MCF7 > 100 µM | KM12 > 100 µM | RPMI-8226 > 100 µM | NCI-H226 > 100 µM | ACHN > 100 µM | HOP-62 > 100 µM | SNB-19 > 100 µM | EKVX > 100 µM | NCI-H522 > 100 µM | OVCAR-8 > 100 µM | U-251 > 100 µM | CCRF-CEM > 100 µM

O=C(O)c1ccccc1CN1CCCC(C(=O)O)C1 (stereo not given)
inactive: MOLT-4 > 100 µM | K562 > 100 µM | COLO 205 > 100 µM | SR > 100 µM | HCT-116 > 100 µM | SK-OV-3 > 100 µM | IGROV-1 > 100 µM | MCF7 > 100 µM | TK-10 > 100 µM | KM12 > 100 µM | RPMI-8226 > 100 µM | NCI-H226 > 100 µM | ACHN > 100 µM | HOP-62 > 100 µM | SNB-19 > 100 µM | EKVX > 100 µM | NCI-H522 > 100 µM | OVCAR-8 > 100 µM | U-251 > 100 µM

Cc1ccc(-c2n[nH]c(=O)n2/N=C\c2ccccc2)cc1
inactive: MOLT-4 > 79.6 µM | K562 > 76.2 µM | COLO 205 74.1 µM | SR > 72.6 µM | HCT-116 37.5 µM | IGROV-1 47.5 µM | MCF7 56.2 µM | TK-10 > 59.2 µM | KM12 54 µM | RPMI-8226 > 86.3 µM | NCI-H226 71.4 µM | ACHN 50.6 µM | HOP-62 22.6 µM | SNB-19 46.3 µM | EKVX 24.9 µM | NCI-H522 33.8 µM | OVCAR-8 53.1 µM | U-251 29.8 µM | CCRF-CEM > 80.9 µM

Cc1ccn2c(=O)cc(-c3ccccc3)nc2c1
inactive: MOLT-4 > 100 µM | K562 > 100 µM | COLO 205 > 100 µM | SR > 100 µM | HCT-116 > 100 µM | SK-OV-3 > 100 µM | IGROV-1 > 100 µM | MCF7 > 100 µM | TK-10 > 100 µM | KM12 68.9 µM | RPMI-8226 > 100 µM | NCI-H226 > 100 µM | ACHN 71.1 µM | HOP-62 > 100 µM | SNB-19 > 100 µM | EKVX 44.7 µM | NCI-H522 55.2 µM | OVCAR-8 > 100 µM | U-251 > 100 µM | CCRF-CEM > 100 µM
